Test results as given in US11427553B2, “Dihydrooxadiazinones” (Bayer Aktiengesellschaft, priority 2017, dated 2022).

Columns and labels:
human full length PDE3B = human full length PDE3B (Homo sapiens (Human), UniProt Q13370); experiment: Assay 5 PDE3B enzyme inhibition (3H-cAMP SPA); assay type: biochemical; details: Sf9 cell extract
Method in brief: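 Hydrolysis of tritiated cAMP by Sf9-expressed full-length human PDE3B proceeded 60 min at room temperature in Tris buffer pH 7.5 containing Mg2+, EDTA and BSA, with enzyme dilution keeping substrate consumption below 70%. IC50 derived from percent activity versus log compound concentration.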

HeLa cells = experiment: Assay 1 cell proliferation measurement (CTG, 72 h), HeLa; assay type: cell-based, human; details: Homo sapiens, HeLa; Assay 1, 72 h, Cell Titer Glo; read-out: HeLa IC50 [nM] (Cervical cancer)
Method in brief: (§1)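 Seed cells, incubate overnight at 37 °C; measure baseline viability (CTG, 0 h plate); dose compound in a 10-step 2.5-fold series (max generally 100 nM final, DMSO 0.3%) for 72 h; read CTG luminescence; fit IC50 with 4 parameters.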

human full length PDE3A = human full length PDE3A (Homo sapiens (Human), UniProt Q14432); experiment: Assay 4 PDE3A enzyme inhibition (3H-cAMP SPA); assay type: biochemical; details: Sf9 cell extract
human full length PDE3A, sequence (Q14432 whole entry): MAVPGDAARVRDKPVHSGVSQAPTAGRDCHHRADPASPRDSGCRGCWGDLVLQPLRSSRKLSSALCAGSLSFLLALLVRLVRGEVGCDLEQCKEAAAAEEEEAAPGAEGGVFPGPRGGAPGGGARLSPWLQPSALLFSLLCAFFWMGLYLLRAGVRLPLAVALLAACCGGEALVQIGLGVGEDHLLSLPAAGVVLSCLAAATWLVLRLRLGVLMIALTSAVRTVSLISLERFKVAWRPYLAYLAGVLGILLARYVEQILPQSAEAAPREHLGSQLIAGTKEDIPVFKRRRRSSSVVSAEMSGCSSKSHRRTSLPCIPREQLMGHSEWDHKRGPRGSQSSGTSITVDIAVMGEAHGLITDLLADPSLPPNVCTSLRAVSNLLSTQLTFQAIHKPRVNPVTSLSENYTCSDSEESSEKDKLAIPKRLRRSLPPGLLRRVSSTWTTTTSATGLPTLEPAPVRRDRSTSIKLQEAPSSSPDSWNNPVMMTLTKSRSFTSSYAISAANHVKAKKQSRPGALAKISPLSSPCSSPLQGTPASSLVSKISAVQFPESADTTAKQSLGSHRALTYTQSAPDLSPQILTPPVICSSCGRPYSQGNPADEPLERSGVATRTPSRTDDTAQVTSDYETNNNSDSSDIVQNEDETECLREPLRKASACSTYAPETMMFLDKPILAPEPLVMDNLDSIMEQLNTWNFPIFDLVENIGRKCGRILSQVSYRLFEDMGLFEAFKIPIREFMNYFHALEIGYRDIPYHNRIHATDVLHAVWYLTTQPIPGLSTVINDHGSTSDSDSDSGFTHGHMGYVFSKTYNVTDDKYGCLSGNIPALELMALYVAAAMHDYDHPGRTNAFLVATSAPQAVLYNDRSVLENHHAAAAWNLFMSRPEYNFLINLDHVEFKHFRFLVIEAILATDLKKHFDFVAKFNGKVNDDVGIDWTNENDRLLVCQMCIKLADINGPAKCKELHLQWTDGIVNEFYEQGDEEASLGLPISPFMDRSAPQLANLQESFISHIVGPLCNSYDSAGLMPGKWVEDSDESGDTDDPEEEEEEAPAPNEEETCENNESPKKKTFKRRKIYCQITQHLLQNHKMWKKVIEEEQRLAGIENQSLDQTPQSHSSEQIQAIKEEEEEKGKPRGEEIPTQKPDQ
Method in brief: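 In this SPA format, the 60-min room-temperature reaction used 0.025 μCi [8-3H]cAMP and diluted full-length PDE3A from Sf9 cells. Percentage activity was plotted against log compound concentration to derive IC50.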

SK-MEL-3 cells = experiment: Assay 1 cell proliferation measurement (CTG, 72 h), SK-MEL-3; assay type: cell-based, human; details: Homo sapiens, SK-MEL3; Assay 1, 72 h, Cell Titer Glo; read-out: SK-MEL-3 IC50 [nM] (melanoma)
Method in brief: as §1

human full length PDE3B, sequence (Q13370 whole entry): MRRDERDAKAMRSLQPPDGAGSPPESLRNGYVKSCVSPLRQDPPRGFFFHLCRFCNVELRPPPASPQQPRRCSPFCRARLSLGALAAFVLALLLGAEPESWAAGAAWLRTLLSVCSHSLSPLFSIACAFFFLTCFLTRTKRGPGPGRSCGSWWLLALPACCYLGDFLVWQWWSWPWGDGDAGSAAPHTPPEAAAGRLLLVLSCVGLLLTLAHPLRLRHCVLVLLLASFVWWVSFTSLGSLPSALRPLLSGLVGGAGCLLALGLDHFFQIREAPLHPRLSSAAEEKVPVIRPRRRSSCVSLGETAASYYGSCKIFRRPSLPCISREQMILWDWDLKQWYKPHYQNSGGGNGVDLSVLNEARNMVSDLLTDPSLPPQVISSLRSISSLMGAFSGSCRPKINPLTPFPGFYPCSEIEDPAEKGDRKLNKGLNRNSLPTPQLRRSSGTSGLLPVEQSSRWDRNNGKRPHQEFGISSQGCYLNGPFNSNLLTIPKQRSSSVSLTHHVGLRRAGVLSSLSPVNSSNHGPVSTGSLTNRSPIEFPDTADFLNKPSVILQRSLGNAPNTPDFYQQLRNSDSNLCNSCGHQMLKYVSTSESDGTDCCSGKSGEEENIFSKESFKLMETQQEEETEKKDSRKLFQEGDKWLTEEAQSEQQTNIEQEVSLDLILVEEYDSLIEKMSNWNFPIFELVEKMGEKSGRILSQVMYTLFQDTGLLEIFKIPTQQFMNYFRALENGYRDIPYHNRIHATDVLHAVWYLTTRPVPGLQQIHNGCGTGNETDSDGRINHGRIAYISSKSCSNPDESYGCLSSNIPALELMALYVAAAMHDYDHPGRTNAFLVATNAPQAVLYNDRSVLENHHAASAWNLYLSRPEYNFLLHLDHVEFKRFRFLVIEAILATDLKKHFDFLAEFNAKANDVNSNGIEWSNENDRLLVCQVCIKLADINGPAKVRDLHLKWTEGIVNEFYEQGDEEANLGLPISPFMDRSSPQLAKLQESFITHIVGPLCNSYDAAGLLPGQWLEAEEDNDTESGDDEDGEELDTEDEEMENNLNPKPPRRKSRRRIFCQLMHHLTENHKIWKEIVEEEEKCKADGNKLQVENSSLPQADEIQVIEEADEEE

SMILES	IC50 (human full length PDE3B) [nM]	IC50 (HeLa cells) [nM]	IC50 (human full length PDE3A) [nM]	IC50 (SK-MEL-3 cells) [nM]
C[C@@H]1OC(=O)NN=C1c1cc(F)c(N2CCOCC2)c(F)c1 [Example 25-2, (6S)-5-(3,5-Difluoro-4-morpholinophenyl)-6-methyl-3,6-dihydro-2H-1,3,4-oxadiazin-2-one]	15	3	17	5
Cc1ccc(-c2ccc(C3=NNC(=O)OC3)cc2F)cc1F [Example 113, 5-(2,3′-Difluoro-4′-methyl[1,1′-biphenyl]-4-yl)-3,6-dihydro-2H-1,3,4-oxadiazin-2-one]	215	2	210	6
CCn1cc(-c2ccc(C3=NNC(=O)OC3)cc2C(F)(F)F)cn1 [Example 131, 5-[4-(1-Ethyl-1H-pyrazol-4-yl)-3-(trifluoromethyl)phenyl]-3,6-dihydro-2H-1,3,4-oxadiazin-2-one]	42	2	32	6
Nc1cccc(-c2ccc(C3=NNC(=O)OC3)cc2F)c1 [Example 91, 5-[4-(3-Aminophenyl)-3-fluoro-phenyl]-3,6-dihydro-1,3,4-oxadiazin-2-one]	85	14	68	17
O=C1NN=C(c2ccc(Br)c(C(F)F)c2)CO1 [Intermediate 77, 5-[4-Bromo-3-(difluoromethyl)phenyl]-3,6-dihydro-2H-1,3,4-oxadiazin-2-one]	330	40	150	65
Nc1cccc(-c2ccc(C3=NNC(=O)OC3)cc2C(F)(F)F)c1F [Example 43, 5-[3′-Amino-2′-fluoro-2-(trifluoromethyl)biphenyl-4-yl]-3,6-dihydro-2H-1,3,4-oxadiazin-2-one]	85	34	96	48
O=C1NN=C(c2ccc(-c3ccc4cn[nH]c4c3)c(C(F)(F)F)c2)CO1 [Example 47, 5-[4-(1H-Indazol-6-yl)-3-(trifluoromethyl)phenyl]-3,6-dihydro-2H-1,3,4-oxadiazin-2-one]	33	2	53	2
Cc1ccc(-c2ccc(C3=NNC(=O)OC3)cc2C(F)(F)F)cn1 [Example 32, 5-[4-(6-Methylpyridin-3-yl)-3-(trifluoromethyl)phenyl]-3,6-dihydro-2H-1,3,4-oxadiazin-2-one]	110	5	67	7
O=C1NN=C(c2ccc(-c3cnsc3)c(C(F)(F)F)c2)CO1 [Example 49, 5-[4-(1,2-Thiazol-4-yl)-3-(trifluoromethyl)phenyl]-3,6-dihydro-2H-1,3,4-oxadiazin-2-one]	190	6	230	13
COCCNc1ccc(C2=NNC(=O)OC2)cc1C(F)(F)F [Example 222, 5-{4-[(2-Methoxyethyl)amino]-3-(trifluoromethyl)phenyl}-3,6-dihydro-2H-1,3,4-oxadiazin-2-one]	120	1	76	1
Cc1ccccc1-c1ccc(C2=NNC(=O)OC2)cc1F [Example 81, 5-(2-Fluoro-2′-methylbiphenyl-4-yl)-3,6-dihydro-2H-1,3,4-oxadiazin-2-one]	270	4	130	9
CCc1ccccc1-c1ccc(C2=NNC(=O)OC2)cc1F [Example 84, 5-(2′-Ethyl-2-fluorobiphenyl-4-yl)-3,6-dihydro-2H-1,3,4-oxadiazin-2-one]	320	19	150	48
O=C1NN=C(c2ccc(-c3ccccc3O)c(F)c2)CO1 [Example 106, 5-(2-Fluoro-2′-hydroxy[1,1′-biphenyl]-4-yl)-3,6-dihydro-2H-1,3,4-oxadiazin-2-one]	240	9	120	16
O=C1NN=C(c2ccc(-c3ccc(O)cc3)c(F)c2)CO1 [Example 105, 5-(2-Fluoro-4′-hydroxy[1,1′-biphenyl]-4-yl)-3,6-dihydro-2H-1,3,4-oxadiazin-2-one]	100	8	48	15
O=C1NN=C(c2ccc(N3CC[C@@H](O)C3)c(C(F)(F)F)c2)CO1 [Example 257, 5-{4-[(3R)-3-Hydroxypyrrolidin-1-yl]-3-(trifluoromethyl)phenyl}-3,6-dihydro-2H-1,3,4-oxadiazin-2-one]	120	6	75	9
COc1ccc(-c2ccc(C3=NNC(=O)O[C@H]3C)cc2C(F)(F)F)cc1 [Example 188, (6S)-5-[4′-Methoxy-2-(trifluoromethyl)[1,1′-biphenyl]-4-yl]-6-methyl-3,6-dihydro-2H-1,3,4-oxadiazin-2-one]	100	22	90	38
O=C1NN=C(c2ccc(NCC3CCCO3)c(C(F)(F)F)c2)CO1 (racemic) [Example 215, (rac)-5-[4-({[Oxolan-2-yl]methyl}amino)-3-(trifluoromethyl)phenyl]-3,6-dihydro-2H-1,3,4-oxadiazin-2-one]	100	2	66	3
Cc1n[nH]cc1-c1ccc(C2=NNC(=O)OC2)cc1C(F)(F)F [Example 46, 5-[4-(3-Methyl-1H-pyrazol-4-yl)-3-(trifluoromethyl)phenyl]-3,6-dihydro-2H-1,3,4-oxadiazin-2-one]	17	21	27	34
CC1CN(c2c(F)cc(C3=NNC(=O)OC3C)cc2F)CCO1 (centres unmarked) [Example 18, 5-{3,5-Difluoro-4-[2-methylmorpholin-4-yl]phenyl}-6-methyl-3,6-dihydro-2H-1,3,4-oxadiazin-2-one]	220	18	450	74
Cn1cc(-c2ccc(C3=NNC(=O)OC3)cc2C(F)(F)F)c(C(F)(F)F)n1 [Example 127, 5-{4-[1-Methyl-3-(trifluoromethyl)-1H-pyrazol-4-yl]-3-(trifluoromethyl)phenyl}-3,6-dihydro-2H-1,3,4-oxadiazin-2-one]	31	> 100	78	> 100
CN(c1ccc(C2=NNC(=O)OC2)cc1C(F)(F)F)C1CCCC1 [Example 132, 5-{4-[Cyclopentyl(methyl)amino]-3-(trifluoromethyl)phenyl}-3,6-dihydro-2H-1,3,4-oxadiazin-2-one]	450	16	260	38
C[C@@H]1OC(=O)NN=C1c1ccc(Cl)c(C(F)(F)F)c1 [Intermediate 74, (6S)-5-[4-chloro-3-(trifluoromethyl)phenyl]-6-methyl-3,6-dihydro-2H-1,3,4-oxadiazin-2-one]	100	6	34	11
Cc1cnccc1-c1ccc(C2=NNC(=O)O[C@H]2C)cc1C(F)(F)F [Example 183, (6S)-6-Methyl-5-[4-(3-methylpyridin-4-yl)-3-(trifluoromethyl)phenyl]-3,6-dihydro-2H-1,3,4-oxadiazin-2-one]	170	15	200	22
